Reference: patent publication US7642277B2, “Non-nucleoside reverse transcriptase inhibitors” (Boehringer Ingelheim International GmbH, priority 2002, dated 2010)

Experiments:
[1] = biological target: T1, HIV-1 RT resistant mutant K103N/Y181C (Human immunodeficiency virus type 1 group M subtype B, UniProt P04585, K690N/Y768C); assay: Reverse transcriptase (RT) enzymatic assay (IC50), PicoGreen fluorescence, resistant mutant; format: biochemical
T1 construct: The reverse transcriptase (RT) enzyme assay has been adapted to a 96-well microtiter plate format
Procedure: (§1) Reverse Transcriptase (RT) Assays Enzymatic Assay (IC50)
The enzymatic assay employed is described as follows: The reverse transcriptase (RT) enzyme assay has been adapted to a 96-well microtiter plate format and uses PicoGreen™ as a fluorescent intercalator. More explicitly, the HIV-1 RT enzyme was thawed and appropriately diluted into Tris/HCl 50 mM pH 7.8 containing NaCl 60 mM, MgCl2∘6H2O 2 mM, DTT 6 mM, GSH 2 mM and 0.02% w/v Chaps to give ≈10 nM enzyme. To 10 μL of this enzyme solution was added 10 μL of inhibitor solution (40 μM to […] inhibitor in the same assay buffer as above containing 4% v/v DMSO). The plate was pre-incubated for 15 minutes at room temperature before proceeding to the next step. In this pre-incubation step, the highest and lowest inhibitor concentrations were 20 μM and 1.016 nM respectively and the concentration of DMSO was 2% v/v. Then the enzymatic reaction was initiated by addition of 20 μL of substrate solution. The final reaction mixture contained Tris/HCl 50 mM pH 7.8, NaCl 60 mM, MgCl2∘6H2O 2 mM, DTT 6 mM, GSH 2 mM, CHAPS 0.02% w/v, DMSO 1% v/v, poly rC 45 nM, dG15 4.5 nM, dGTP 3.6 μM, and ≈2.5 nM enzyme. In this incubation step, the highest and lowest inhibitor concentrations were 10 μM and 0.508 nM respectively. After addition of the substrate cocktail, the plate was covered with a plastic seal and incubated for 50 minutes at 37° C. in a dry incubator. The reaction was then quenched by addition of 5 μL of EDTA 0.5 M. The plate was shaken for 30 seconds at medium speed and incubated for 5 minutes at room temperature. Then 160 μL of PicoGreen™ 1:400 dilution from commercial stock (diluted in Tris 20 mM pH 7.5 with EDTA 1 mM) was added and the plate was shaken for 30 seconds and incubated for 10 minutes at room temperature. The plate was then analyzed using a POLARstar Galaxy fluorimeter (BMG Labtechnologies) with λex and λem of 485 nm and 520 nm respectively. […] Each row contained at its extremities a blank and a control well.
(§2) Table legend: A=>100; B=100-50; C=<50; NT=not tested

[2] = tested on: HIV-1 (wild type) in C8166 LTRluc cells; assay: C8166 HIV-1 luciferase assay (EC50), wild type; format: cell-based; conditions: Human immunodeficiency virus 1, C8166 HIV-1 luciferase assay (no *)
From the text: (§3) C8166 HIV-1 Luciferase Assay (EC50)
(§4) Plasmid: pGL3 Basic LTR/TAR #12
Plasmid is the pGL3 Basic Vector (a promoterless luciferase expression vector from Promega catalogue #E1751) with the addition of HIV-1 H×B2 LTR sequence from nucleotide −138 to +80 (Sca1-HindIII) upstream of the luciferase gene and the gene for blasticidine resistance cloned in.
(§5) C8166 cells are a human T-lymphotrophic virus type 1 immortalized but nonexpressing line of cord blood lymphocytes and are highly permissive to HIV-1 infection. The reporter cells were made by electroporating C8166 cells with pGL3 Basic LTR/TAR and then selecting positive clones with blasticidine. The clone C8166-LTRluc #A8-F5-G7 was selected by 3 consecutive rounds of limiting dilution under blasticidine selection.
(§6) Media: Complete media consisting of: RPMI 1640+10% FBS+10^−5 M
(§7) β-mercaptoethanol+10 μg/ml gentamycin. Cultures are maintained in complete media with 5 μg/ml blasticidine, however, selection is removed for the assay.
(§8) Luciferase Assay Protocol
(§9) Serial dilutions of HIV-1 inhibitors compounds are prepared in complete media from 10 mM DMSO stock solutions. Eleven serial dilutions of 2.5× are made at 8× desired final concentration in a 1 ml deep well titer plate (96 wells). The 12th well contains complete media with no inhibitor and serves as the positive control. All samples contain the same concentration of DMSO (≦0.1% DMSO). A 25 μl aliquot of inhibitor is added, to triplicate wells, of a 96 well tissue culture treated clear view black microtiter plate (Corning Costar catalogue # 3904). The last row is reserved for uninfected C8166 LTRluc cells to serve as the background blank control and the first row is media alone.
(§10) Count C8166 LTRluc cells and place in a minimal volume of complete RPMI 1640 in a tissue culture flask (ex. 30×10^6 cells in 10 ml media/25 cm^2 flask). Infect cells with HIV-1 at a moi of 0.005. Incubate cells for 1.5 hours at 37° C. on a rotating rack in a 5% CO2 incubator. Resuspend cells in complete RPMI to give a final concentration of 25,000-cells/175 μl. Add 175 μl of cell mix to wells of 96 well microtiter plate containing 25 μl 8× inhibitors. Add 25,000 uninfected C8166-LTRluc cells/well in 200 μl complete RPMI to last row for background control. Incubate cells at 37° C. in 5% CO2 incubator for 3 days.
(§11) Add 50 μl Steady Glo (luciferase substrate T1/2=5 hours Promega catalogue # E2520) to each well of the 96 well plate. Determine the relative light units (RLU) of luciferase using the BMG LUMlstar Galaxy luminometer. Plates are read from the bottom for 2 seconds per well with a gain of 240.
(§12) The level of inhibition (% inhibition) of each well containing inhibitor was calculated with the following equation: […]
The calculated % inhibition values were then used to determine EC50, slope factor (n) and maximum inhibition (Imax) by the non-linear regression routine NLIN procedure of SAS using the following equation: […]
The results are listed in Table 9 as IC50(nM) and EC50 (nM).
as §2

[3] = tested on: HIV-1 resistant mutant K103N/Y181C in C8166 LTRluc cells; assay: C8166 HIV-1 luciferase assay (EC50), resistant mutant; format: cell-based; conditions: Human immunodeficiency virus 1, C8166, read-out: EC50 K103N/Y181C
From the text: as §3, §4, §5, §6, §7, §8
as §9, with “Eleven” for “Serial dilutions of HIV-1 inhibitors compounds are prepared in complete media from 10 mM DMSO stock solutions. Eleven”
as §10, with “Infect cells with HIV-1 at a moi of 0.005.” left out
as §11, §12
The calculated % inhibition values were then used to determine EC50, slope factor (n) and maximum inhibition (Imax) by the non-linear regression routine NLIN procedure of SAS using the following equation:
as §2

[4] = biological target: T2, HIV-1 RT enzyme (wild type) (Human immunodeficiency virus type 1 group M subtype B, UniProt P04585); assay: Reverse transcriptase (RT) enzymatic assay (IC50), PicoGreen fluorescence, wild type; format: biochemical; conditions: RT enzymatic assay, wild type; read-out: IC50 WT
T2 construct: The reverse transcriptase (RT) enzyme assay has been adapted to a 96-well microtiter plate format
Procedure: as §1
The enzymatic assay employed is described as follows: The reverse transcriptase (RT) enzyme assay has been adapted to a 96-well microtiter plate format and uses PicoGreen™ as a fluorescent intercalator. More explicitly, the HIV-1 RT enzyme was thawed and appropriately diluted into Tris/HCl 50 mM pH 7.8 containing NaCl 60 mM, MgCl2∘6H2O 2 mM, DTT 6 mM, GSH 2 mM and 0.02% w/v Chaps to give ≈10 nM enzyme. […] The plate was pre-incubated for 15 minutes at room temperature before proceeding to the next step. […] Then the enzymatic reaction was initiated by addition of 20 μL of substrate solution. […] After addition of the substrate cocktail, the plate was covered with a plastic seal and incubated for 50 minutes at 37° C. in a dry incubator. The reaction was then quenched by addition of 5 μL of EDTA 0.5 M. The plate was shaken for 30 seconds at medium speed and incubated for 5 minutes at room temperature. Then 160 μL of PicoGreen™ 1:400 dilution from commercial stock (diluted in Tris 20 mM pH 7.5 with EDTA 1 mM) was added and the plate was shaken for 30 seconds and incubated for 10 minutes at room temperature. […] Each row contained at its extremities a blank and a control well.
as §2

Cc1ccc(Cl)c(-n2nnnc2SCC(=O)Nc2ccccc2[N+](=O)[O-])c1 [Entry 145]
IC50 [1]: > 0.1 µM
EC50 [2]: < 0.05 µM
EC50 [3]: > 0.1 µM
IC50 [4]: < 0.05 µM

Cc1cc(C)c(-n2nnnc2SCC(=O)Nc2ccccc2[N+](=O)[O-])c(Cl)c1 [Entry 146]
IC50 [1]: 0.05 to 0.1 µM
EC50 [2]: < 0.05 µM
EC50 [3]: 0.05 to 0.1 µM
IC50 [4]: < 0.05 µM

Cc1cc(C)c(-n2nnnc2SCC(=O)Nc2ccccc2[N+](=O)[O-])c(Br)c1 [Entry 147]
IC50 [1]: > 0.1 µM
EC50 [2]: < 0.05 µM
EC50 [3]: 0.05 to 0.1 µM
IC50 [4]: < 0.05 µM

O=C(CSc1nnnn1-c1cccc2ccccc12)Nc1ccc(-c2ccccc2)cc1Cl [Entry 238]
IC50 [1]: > 0.1 µM
EC50 [2]: 0.05 to 0.1 µM
EC50 [3]: > 0.1 µM
IC50 [4]: < 0.05 µM

O=C(CSc1nnnn1-c1cccc2ccccc12)Nc1ccc(O)cc1Cl [Entry 246]
IC50 [1]: > 0.1 µM
EC50 [2]: < 0.05 µM
EC50 [3]: > 0.1 µM
IC50 [4]: < 0.05 µM

Cc1nnc(SCC(=O)Nc2ccccc2[N+](=O)[O-])n1-c1cccc2ccccc12 [Entry 403]
IC50 [1]: > 0.1 µM
EC50 [2]: < 0.05 µM
EC50 [3]: > 0.1 µM
IC50 [4]: < 0.05 µM

Cc1ccc(-c2ccccc2SCC(=O)Nc2ccccc2Cl)c(Cl)c1 [Entry 416]
IC50 [1]: > 0.1 µM
EC50 [2]: < 0.05 µM
EC50 [3]: > 0.1 µM
IC50 [4]: < 0.05 µM

Cc1ccc(-c2ccccc2SCC(=O)Nc2ccccc2[N+](=O)[O-])c(Cl)c1 [Entry 417]
IC50 [1]: > 0.1 µM
EC50 [2]: < 0.05 µM
EC50 [3]: > 0.1 µM
IC50 [4]: < 0.05 µM

Cc1ccc(-n2c(CCO)nnc2SCC(=O)Nc2ccc(-c3ccccc3)cc2Cl)c(Cl)c1 [Entry 429]
IC50 [1]: > 0.1 µM
EC50 [2]: < 0.05 µM
EC50 [3]: > 0.1 µM
IC50 [4]: < 0.05 µM

Cc1nnc(SCC(=O)Nc2ccccc2Cl)n1-c1ccc(C(C)(C)C)cc1Cl [Entry 430]
IC50 [1]: 0.05 to 0.1 µM
EC50 [2]: < 0.05 µM
EC50 [3]: 0.05 to 0.1 µM
IC50 [4]: < 0.05 µM

Cc1nnc(SCC(=O)Nc2ccc(S(C)(=O)=O)cc2Cl)n1-c1ccc(C(C)(C)C)cc1Cl [Entry 431]
IC50 [1]: 0.05 to 0.1 µM
EC50 [2]: < 0.05 µM
EC50 [3]: < 0.05 µM
IC50 [4]: < 0.05 µM
